Test [1] in a line: relative insecticidal efficacy (general statement). Format: in vivo. As to conditions: Starting Material vs previously described mixture of cis and trans isomers; Racemate vs Starting Material.
Test [2] deals with Heliothis virescens (tobacco budworm). In words: LC50 against larval tobacco budworm. Type of test: in vivo. As to conditions: for LC50: read-out: LC50 (concentration required to kill 50% of a population). An excerpt: The isomers were obtained by the h.p.l.c. technique shown in the next Example.

Values after ≈ are worked out from the molar mass of the structure shown. Like-named read-outs stand apart in the source and are kept apart here.

Turning to `CC1(C)[C@H](C(=O)OC(C#N)c2ccc(F)c(Oc3ccccc3)c2)[C@@H]1C=C(Cl)Cl` (mixture of isomers) [The Starting Material, (RS) -α-cyano-4-fluoro-3-phenoxybenzyl (1RS,cis)-3-(2,2-dichlorovinyl)-2,2-dimethylcyclopropane carboxylate], the relative insecticidal efficacy result in test [1] is “potent insecticide of greater relative efficacy than the previously described mixture of cis and trans isomers”.
As for `CC1(C)C(C=C(Cl)Cl)C1C(=O)OC(C#N)c1ccc(F)c(Oc2ccccc2)c1` (racemic) [Cyfluthrin, (R,S)-α-cyano-4-fluoro-3-phenoxybenzyl (1R,S-cis)/(1R,S-trans)-3-(2,2-dichlorovinyl)-2,2-dimethylcyclopropane carboxylate], in test [2] (larval Heliothis virescens), the LC50 was 7.1 µg/mL (≈ 16.3 µM).
`CC1(C)[C@H](C(=O)O[C@H](C#N)c2ccc(F)c(Oc3ccccc3)c2)[C@@H]1C=C(Cl)Cl` (relative stereo) [1R,cis-S/1S,cis-R, (S)-α-cyano-4-fluoro-3-phenoxybenzyl (1R,cis)-3-(2,2-dichlorovinyl)-2,2-dimethylcyclopropanecarboxylate and its enantiomer, (R)-α-cyano-4-fluoro-3-phenoxybenzyl (1S,cis)-3-(2,2-dichlorovinyl)-2,2-dimethylcyclopropane carboxylate]: in test [2] (larval Heliothis virescens, from LC50 values), the “efficacy relative to cyfluthrin” value is recorded as “about four times more efficacious than cyfluthrin”. Also, the LC50 in test [2] (larval Heliothis virescens) is 1.8 µg/mL (≈ 4.14 µM). The relative insecticidal efficacy result in test [1] is “even more effective insecticidal product”.
On to `CC1(C)[C@H](C=C(Cl)Cl)[C@H]1C(=O)O[C@H](C#N)c1ccc(F)c(Oc2ccccc2)c1` (relative stereo) [1R,trans-S/1S,trans-R], for which the LC50 in test [2] (larval Heliothis virescens) worked out at 3.6 µg/mL (≈ 8.29 µM).
With `CC1(C)[C@H](C(=O)O[C@@H](C#N)c2ccc(F)c(Oc3ccccc3)c2)[C@@H]1C=C(Cl)Cl` (relative stereo) [1S,cis-S/1R,cis-R, (R)-α-cyano-4-fluoro-3-phenoxybenzyl (1R,cis)-3-(2,2-dichlorovinyl)-2,2-dimethylcyclopropane carboxylate and (S)-α-cyano-4-fluoro-3-phenoxybenzyl (1S,cis)-3-(2,2-dichlorovinyl)-2,2-dimethylcyclopropane carboxylate], in test [2] (Heliothis virescens), the LC50 was 23.4 µg/mL (≈ 53.9 µM).

Values taken from US4681969A, “Process for the preparation of an enantiomeric pair of isomers of cyfluthrin” (Imperial Chemical Industries PLC, priority 1984, dated 1987).
